≈ marks a conversion by molar mass, not a printed value.
Experiments:
Assay type in all cases: physicochemical
[1] = Shake-flask thermodynamic aqueous solubility (1H NMR quantification); conditions: for solubility at 24 h: water, thermodynamic from solid, D2O, room temperature
Text: (§1) With the 12 combinatorial molecules in hand, we initially examined their hydrophilicity and aqueous solubility. The water-contact angle test gave a clear hydrophilic assessment for these molecules (Table 1 and Supplementary Table 1). The conventional shake-flask method was employed to obtain the thermodynamic aqueous solubility data[29]. […]. In pursuit of both improving the hydrophilicity and aqueous solubility, we planned to introduce dual N/O heteroatoms to C1 skeleton as listed in group 2. […]. The turning point comes to C9 that doping two N atoms on the phenanthrene subcomponent besides the oxazole part. A water contact angle of 0° indicates the high hydrophilicity of C9. […].
1.3 Determination of solubility-related parameters
(1) Measurement of aqueous solubility
We applied the classic shake-flask method to determine the solubility data of C2–C12 in water. Typically, an excess amount of C2 was added to 1.0 mL of D2O, and the mixture was stirred at room temperature for 24 h. After that, the phase separation of saturated solution was finished through centrifugation. 1H NMR technology was applied to quantitatively analysis the concentration of solute using tetrahydrofuran as internal standard. Actually, we didn’t synthesize C1 to obtain its solubility data from experimental method because it’s obvious that this compound would be insoluble in water from reasonable judgement. Alternatively, due to its high hydrophobicity and measured water solubility data from C2–C8 counterpart, we can estimate this value must be at least lower than 0.1 mg / mL as well. […]

Water-contact angle test = test: Water-contact angle test
Text: as §1
Supplementary Table 1. Collected water contact angles for C2 – C12 […]

[2] = Hansen solubility parameters (HSP) from rated solvent library, optimized in HSPiP; Ra and RED versus water; conditions: for Water2 Ra: distance to water HSP of dense condition (18.1, 17.1, 16.9); for Water1 Ra: distance to water HSP of dilute condition (15.1, 20.4, 16.5); for δD (dispersion solubility parameter) / δH (hydrogen bonding solubility parameter) / δP (polar solubility parameter) / R0 (intrinsic distance parameter): experimentally rated solvent library, HSPiP; for R0 (intrinsic distance parameter): unit assumed; for Water2 RED (Ra/R0): water HSP of dense condition (18.1, 17.1, 16.9); for Water1 RED (Ra/R0): water HSP of dilute condition (15.1, 20.4, 16.5)
Text: To figure out why the doped N/O heteroatoms on the aromatic skeletons can both influence their hydrophilicity and aqueous solubility, we employed the Hansen solubility parameters (HSP) to interpret this phenomenon. This method developed by Charles Hansen et al.[30] has found broad use both in academia and industry for predicting the compatibility or affinity between two substances[31]–[34]. The key elements of HSP approach are three partial solubility parameters consisting of δD, δP, and δH, in which δD represents the dispersion solubility parameter, δP represents the polar solubility parameter, and δH represents the hydrogen bonding solubility parameter, respectively.
The three partial parameters define a three-dimensional coordinate for substances in a virtual solubility space (Hanse space). In principle, the closer the two coordinates of HSP are, the more likely the substances will dissolve in each other, which is consistent with the notion of “like dissolves like” rule. To better describe the degree of closeness, another solubility parameter “distance” (Ra) is introduced as follows:1 Ra2=4(δD2−δD1)^2+(δP2−δP1)^2+(δH2−δH1)^2 […]
Meanwhile, each substance has an intrinsic distance parameter R0, together with HSP as a center point that would define a solubility sphere in Hansen space. If the HSP coordinate of one substance is located inside the sphere of another substance, it indicates a high affinity between them. For solute and solvent cases, a dissolution process may happen. Otherwise, a low affinity is inferred if one substance is excluded from the sphere of another.
The total HSP data set of C1-C12 was experimentally tested and optimized from a combination of solvents library and listed in Table 1 (Supplementary Methods 1.3, Supplementary Fig. 1). […] For the unique H2O, there are three sets of HSP for different conditions. The first is the HSP of single-molecule (pure) water (15.5, 16.0, 42.3), in which the δH is more salient than δD and δP, it well explains the strong hydrogen bonding interactions between water molecules. However, its use in the prediction of solubility in water is not deemed appropriate in most cases. The second and third sets of HSP for water are those derived from solubility data and should be chosen case by case. The second set of HSP (15.1, 20.4, 16.5) was derived from experimental data set exceeding 1% soluble compounds in water, which may be appropriate for the diluted solute case (denoted as Water1). The third set of HSP (18.1, 17.1, 16.9) was derived from experimental data set of complete miscible compounds with water, which may be appropriate for the dense solute case (denoted as Water2).
1.3 Determination of solubility-related parameters […]
(2) Determination of Hansen solubility parameters (HSP)3
A collection of solvents was used to estimate the HSPs values of C2–C12, which includes dichloromethane, chloroform, toluene, diethyl ether, hexane, dioxane, pyridine, tetrahydrofuran, dimethyl sulfoxide, N, N-dimethyl formamide, acetone, acetonitrile, methanol and ethanol. If the specific solvent (0.5 mL) can dissolve at least 1.0 mg of certain solute would be rated as good solvent, otherwise as bad solvent. For C1, it’s expected that this molecule can only dissolve in nonpolar solvents (recrystallized from CCl4 according to literature report). We […]
methanol, ethanol and water would be bad solvents. These rated solvent s datasets for C1–C12 were imported to HSPiP software that developed by Dr. Hansen, Abbott and Hiroshi to optimize and obtain three partial HSPs values.

[3] = Apparent association constants by 1H NMR shift analysis (dimeric model); conditions: for Ka (CHCl3), apparent association constant: CHCl3, dimeric model; for Ka (MeOH-H2O), apparent association constant: MeOH-H2O (legend: H2O), dimeric model
Text: As is known, high concentration as a driving force to promote the molecular aggregation in solution is ubiquitous and well recognized[37],[38]. To compare the high concentration induced aggregation phenomenon with our case, we measured their apparent association constants (Ka) by ^1H NMR shift analysis after simplifying the aggregates to a dimeric model[39] (Supplementary Figs. 17–28). As listed in Fig. 3b, C10-C12 in chloroform display relatively weak association ability induced by high concentration factor. […] Meanwhile, the ^13C NMR spectra gave more informative details about C10-C12 in different existing states (Fig. 3c, Supplementary Figs. 13 and 14). […] In comparison, these signals became broadened and moved to upfield with a maximal 3.19 ppm shift in D2O conditions, which was almost in consistent with the solid-state ^13C magic-angle spinning (MAS) NMR spectrum despite its much broader signature. Moreover, the luminescent emissions of C10-C12 in various solvent ratios and solid-state were also screened (Fig. 3d, Supplementary Figs. 33 and 34). […] Unexpectedly, the maximal emissions in water are close to the solid state of C10-C12 (e.g., 472 nm in water versus 486 nm in solid for C10), indicative of a homologous excited-state energy transfer pathway.

SMILES	solubility at 24 h [1]	Water contact angle (Water-contact angle test; C2-C12)	Water2 Ra [2]	Water1 Ra [2]	δD (dispersion solubility parameter) [2]	δH (hydrogen bonding solubility parameter) [2]	δP (polar solubility parameter) [2]	R0 (intrinsic distance parameter) [2]	Aqueous solubility [1]	Water2 RED (Ra/R0) [2]	Water1 RED (Ra/R0) [2]	Ka (CHCl3), apparent association constant [3]	Ka (MeOH-H2O), apparent association constant [3]	Water contact angle (Water-contact angle test; C1 not synthesized, deduced and estimated by comparison with C2)
c1cncc(-c2nc3c4cccnc4c4ncccc4c3[nH]2)c1 [C5]	< 100 µg/mL	0 °	3.7 MPa^0.5	5.3 MPa^0.5	16.4 (MPa)^0.5	16.5 (MPa)^0.5	15.8 (MPa)^0.5	7 MPa^0.5						
c1cnc2c(c1)c1nc(-c3ccncc3)[nH]c1c1cccnc12 [C4]	< 100 µg/mL	0 °	3.8 MPa^0.5	5.5 MPa^0.5	16.4 (MPa)^0.5	16.1 (MPa)^0.5	15.6 (MPa)^0.5	7.5 MPa^0.5						
c1ccc(-c2nc3c4cccnc4c4ncccc4c3[nH]2)nc1 [C6]	< 100 µg/mL	0 °	5.9 MPa^0.5	7.9 MPa^0.5	16.1 (MPa)^0.5	16.8 (MPa)^0.5	12.8 (MPa)^0.5	7.9 MPa^0.5						
c1ccc(-c2nc3c4ccccc4c4ccccc4c3o2)nc1 [C8]	< 100 µg/mL	128.6 °	13.8 MPa^0.5	18.1 MPa^0.5	19.4 (MPa)^0.5	7.8 (MPa)^0.5	7.0 (MPa)^0.5	8.8 MPa^0.5	barely soluble in water	1.6	2.1			
c1cnc2c(c1)c1nc(-c3ccncc3)oc1c1cccnc12 [C10]	40000 µg/mL (≈ 134000 µM)	0 °	10.8 MPa^0.5	15 MPa^0.5	17.7 (MPa)^0.5	15.8 (MPa)^0.5	6.3 (MPa)^0.5	10.7 MPa^0.5			1.4	8(2) M^-1	772(47) M^-1	
C1=C(c2ccccc2)Cc2c1c1ccccc1c1ccccc21 [C1, 2-phenyl-1H-cyclophen[l]phenanthrene, reference compound]			20.8 MPa^0.5	23.8 MPa^0.5										>140 °
c1ccc(-c2nc3c4ccccc4c4ccccc4c3o2)cc1 [C7]	< 100 µg/mL	135.2 °	13.9 MPa^0.5	18.2 MPa^0.5	19.5 (MPa)^0.5	7.5 (MPa)^0.5	7.2 (MPa)^0.5	6.6 MPa^0.5	barely soluble in water		2.8			
c1ccc(-c2nc3c4cccnc4c4ncccc4c3[nH]2)cc1 [C3]	< 100 µg/mL	0 °	10.5 MPa^0.5	14.1 MPa^0.5	17.9 (MPa)^0.5	10.1 (MPa)^0.5	9.1 (MPa)^0.5	5.4 MPa^0.5		1.9				
c1ccc(-c2nc3c4ccccc4c4ccccc4c3[nH]2)cc1 [C2]	< 100 µg/mL	140.6 °	9.9 MPa^0.5	13.3 MPa^0.5	18.5 (MPa)^0.5	8.1 (MPa)^0.5	12.6 (MPa)^0.5	4.5 MPa^0.5						
c1ccc(-c2nc3c4cccnc4c4ncccc4c3o2)cc1 [C9]	900 µg/mL (≈ 3030 µM)	0 °	5.1 MPa^0.5	10.8 MPa^0.5	18.6 (MPa)^0.5	15.5 (MPa)^0.5	12.3 (MPa)^0.5	10 MPa^0.5	slightly soluble		1.1			
c1ccc(-c2nc3c4cccnc4c4ncccc4c3o2)nc1 [C12]	150000 µg/mL (≈ 503000 µM)	0 °	10.9 MPa^0.5	16.4 MPa^0.5	19.4 (MPa)^0.5	17.2 (MPa)^0.5	6.5 (MPa)^0.5	12.3 MPa^0.5			1.3	13(1) M^-1	918(77) M^-1	

From article PMC9814590, “Precise heteroatom doping determines aqueous solubility and self-assembly behaviors for polycyclic aromatic skeletons” (Communications Chemistry, 2022)
